Data on 14 molecules can be found in US10836789B2, “Inhibitors of glucocorticoid receptor” (ORIC Pharmaceuticals, Inc., priority 2016, dated 2020).

pIC50: −log10 of the molar value.

One experiment concerns the target T1, GR (Homo sapiens, UniProt P04150).
T1 construct: expressed in transfected cells; host or cells: CHO cells carrying GR and an MMTV-luciferase reporter
T1 sequence (P04150 1-777): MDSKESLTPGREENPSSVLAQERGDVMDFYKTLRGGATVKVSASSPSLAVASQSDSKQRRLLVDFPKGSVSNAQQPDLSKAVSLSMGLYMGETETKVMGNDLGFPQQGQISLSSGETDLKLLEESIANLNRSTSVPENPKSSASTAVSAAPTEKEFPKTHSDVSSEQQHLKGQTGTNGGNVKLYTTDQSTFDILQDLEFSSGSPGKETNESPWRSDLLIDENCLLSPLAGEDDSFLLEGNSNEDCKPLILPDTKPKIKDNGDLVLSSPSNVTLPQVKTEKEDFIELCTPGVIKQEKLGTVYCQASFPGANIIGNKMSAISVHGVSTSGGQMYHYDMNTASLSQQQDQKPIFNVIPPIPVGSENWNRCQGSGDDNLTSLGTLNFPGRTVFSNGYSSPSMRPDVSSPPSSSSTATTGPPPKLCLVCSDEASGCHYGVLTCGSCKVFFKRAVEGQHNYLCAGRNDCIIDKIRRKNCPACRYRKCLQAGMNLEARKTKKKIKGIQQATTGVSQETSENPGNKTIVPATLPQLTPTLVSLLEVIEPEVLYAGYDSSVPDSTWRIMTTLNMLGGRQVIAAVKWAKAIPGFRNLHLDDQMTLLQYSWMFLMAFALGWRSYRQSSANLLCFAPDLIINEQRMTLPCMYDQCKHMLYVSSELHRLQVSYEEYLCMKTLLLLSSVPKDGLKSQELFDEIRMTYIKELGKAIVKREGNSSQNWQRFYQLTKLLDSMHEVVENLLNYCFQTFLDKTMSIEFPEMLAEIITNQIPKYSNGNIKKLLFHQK
The experiment is described as follows: GR luciferase antagonist assay (CHO/GR/MMTV Luciferase cells). It is filed as cell-based. The conditions noted are these: 10 nM Dexamethasone final, 16-18 h. The protocol: Example A: […] GR Luciferase Assay Cell Line: CHO/GR/MMTV Luciferase Culture Media: DMEM (with phenol red)+10% FBS Assay Media: DMEM (without phenol red)+10% CSS A 1×10 cm plate of cells was split into 2×15 cm plates in Assay Media (CSS). After 4 days, the cells in the Assay Media were collected and counted. Antagonist Assay: 1.5×10^4 cells per well were plated in a 384-well white walled TC plate in 20 ul of Assay Media containing 12.5 nM Dexamethasone (final concentration=10 nM). The plates were covered with film to avoid evaporation and placed in a TC incubator. Media/drug dilutions were prepared in Assay Media in 96-well sterile plates. 100 ul of Assay Media was distributed in aliquots into 96-well plates with an 8-Channel pipette (20-200 ul). 0.5 ul of 1000× concentration of compounds were added to the plates with 8-Channel pipette (0.5-10 ul). The plates were shaken for 15 seconds to mix. The film was removed from the 384-well plates with assay cells. 5 ul of media/drug dilutions were added to appropriate wells. The plates were covered with film to avoid evaporation and placed in a TC incubator overnight. After 16-18 h in the incubator, the plates were removed and sat at room temperature for 10 minutes to equilibrate. The Reagent Dispenser was setup to distribute 25 ul aliquots of OneGlo Luciferase Reagent (at room temperature) to each well of the 384-well plate using standard cassette. After OneGlo was added to the plates, the plates were shaken briefly, then incubated in the dark at room temperature for about 3 minutes. The plates were read using a Tecan or Promega luminometer. The ability of the compounds disclosed herein to inhibit GR activity was quantified and the respective IC50 value was determined. Table 3 provides the cellular IC50 values of various substituted steroidal compounds disclosed herein.

The subject of the next experiment is AR. The experiment is described as follows: AR agonism assay in LNAR reporter cell line. It is filed as cell-based. The conditions noted are these: LNAR cells (overexpressed AR, 4XARE-Luc), 10% CSS, 18-24 hrs; Mifepristone maximum response set to 1. The protocol: Example B: In Vitro AR Agonism Assay
The AR agonism assay was done in the LNAR reporter cell line which has overexpressed AR and 4XARE-Luc genes. This cell line is sensitive to even minor partial AR agonism activity in hormone-deprived media (CSS). The assays were done in RPMI (without phenol red)+10% CSS using 6000 LNAR cells/well in 384-well plates and compounds were incubated with cells in […] incubator for 18-24 hrs. OneGlo reagent (25 uL/well) was added and plates were read with luminometer within 3 minutes.
To gauge the AR partial agonism activity, Mifepristone is included as a standard in the assay. AR agonism assay results are quantified by determining the ratio of the maximum response of individual compounds to the maximum response of Mifepristone (arbitrarily set to 1). Values of Table 4 are reported as Relative Maximum Response to Mifepristone. This general trend of AR agonism was shown for the class of compounds described herein.

With `CC(C)N(C)c1ccc([C@H]2C[C@@]3(C)[C@@H](CC[C@@]3(O)C#CC3CC3)[C@@H]3CCC4=CC(=O)CC[C@]4(C)[C@H]32)cc1` [Compound 21, (8S,9R,10R,11S,13S,14S,17S)-17-(Cyclopropylethynyl)-17-hydroxy-11-(4-(isopropyl(methyl)amino)phenyl)-10,13-dimethyl-1,2,6,7,8,9,10,11,12,13,14,15,16,17-tetradecahydro-3H-cyclopenta[a]phenanthren-3-one], the negative logarithm of the IC50 (pIC50) against GR is at least 7.00. Moreover, the “Relative Maximum Response to Mifepristone” value (shortened to “Relative Maximum Response”) with AR is reported as “A (A: ≤ 0.4)”.

Regarding `COCC#C[C@]1(O)CC[C@H]2[C@@H]3CCC4=CC(=O)CC[C@]4(C)[C@H]3[C@@H](c3ccc(N(C)C)cc3)C[C@@]21C` [Compound 17, (8S,9R,10R,11S,13S,14S,17S)-11-(4-(Dimethylamino)phenyl)-17-hydroxy-17-(3-methoxyprop-1-yn-1-yl)-10,13-dimethyl-1,2,6,7,8,9,10,11,12,13,14,15,16,17-tetradecahydro-3H-cyclopenta[a]phenanthren-3-one], the pIC50 at GR was below 7.00. The “Relative Maximum Response” value in the experiment on AR is “A (A: ≤ 0.4)”.

At GR, `COC(C)(C)C#C[C@]1(O)CC[C@H]2[C@@H]3CCC4=CC(=O)CC[C@@H]4[C@H]3[C@@H](c3ccc(N(C)C(C)C)cc3)C[C@@]21C` [Compound 4, (8R,9S,10R,11S,13S,14S,17S)-17-Hydroxy-11-(4-(isopropyl(methyl)amino)phenyl)-17-(3-methoxy-3-methylbut-1-yn-1-yl)-13-methyl-1,2,6,7,8,9,10,11,12,13,14,15,16,17-tetradecahydro-3H-cyclopenta[a]phenanthren-3-one] showed a pIC50 of at least 7.00. Moreover, the “Relative Maximum Response” value with AR was “A (A: ≤ 0.4)”.

On GR, `CC#C[C@]1(O)CC[C@H]2[C@@H]3CCC4=CC(=O)CC[C@]4(C)[C@H]3[C@@H](c3ccc(N(C)C)c(F)c3)C[C@@]21C` [Compound 32] showed a pIC50 below 7.00. The “Relative Maximum Response” value in the experiment on AR is “A (A: ≤ 0.4)”.

Consider `CC(C)(C)C#C[C@]1(O)CC[C@H]2[C@@H]3CCC4=CC(=O)CC[C@@H]4[C@H]3[C@@H](c3ccc(N4CCOCC4)cc3)C[C@@]21C` [Compound 7, (8R,9S,10R,11S,13S,14S,17S)-17-(3,3-Dimethylbut-1-yn-1-yl)-17-hydroxy-13-methyl-11-(4-morpholinophenyl)-1,2,6,7,8,9,10,11,12,13,14,15,16,17-tetradecahydro-3H-cyclopenta[a]phenanthren-3-one], for which, at GR, the pIC50 is at least 7.00. For the same molecule, the “Relative Maximum Response” value with AR was “A (A: ≤ 0.4)”.

The molecule `CN1CCN(c2ccc([C@H]3C[C@@]4(C)[C@@H](CC[C@@]4(O)C#CC(C)(C)C)[C@@H]4CCC5=CC(=O)CC[C@@H]5[C@H]43)cc2)CC1` [Compound 20] gave a pIC50 against GR of at least 7.00. The “Relative Maximum Response” value in the experiment on AR is listed as “A (A: ≤ 0.4)”.

Consider `CC(C)N(C)c1ccc([C@H]2C[C@@]3(C)[C@@H](CC(C)[C@@]3(O)C#CC(C)(C)C)[C@@H]3CCC4=CC(=O)CC[C@@H]4[C@H]32)cc1` (single isomer, unassigned) [Compound 8], for which the pIC50 at GR is at least 7.00. Moreover, in the experiment with AR, the “Relative Maximum Response” value is reported as “A (A: ≤ 0.4)”.

For `CC(C)Nc1ccc([C@H]2C[C@@]3(C)[C@@H](CC[C@@]3(O)C#CC(C)(C)C)[C@@H]3CCC4=CC(=O)CC[C@@H]4[C@H]32)cc1` [Compound 10, (8R,9S,10R,11S,13S,14S,17S)-17-(3,3-Dimethylbut-1-yn-1-yl)-17-hydroxy-11-(4-(isopropylamino)phenyl)-13-methyl-1,2,6,7,8,9,10,11,12,13,14,15,16,17-tetradecahydro-3H-cyclopenta[a]phenanthren-3-one], the pIC50 at GR is at least 7.00. For the same molecule, the “Relative Maximum Response” value in the experiment with AR is recorded as “A (A: ≤ 0.4)”.

On GR, `CC(C)(C)C#C[C@]1(O)CC[C@H]2[C@@H]3CCC4=CC(=O)CC[C@@H]4[C@H]3[C@@H](c3ccc(N4CCN(C(=O)OC(C)(C)C)CC4)cc3)C[C@@]21C` [Compound 25] showed a pIC50 of at least 7.00. The “Relative Maximum Response” value in the experiment on AR was “A (A: ≤ 0.4)”.

The molecule `CC(C)Nc1ccc([C@H]2C[C@@]3(C)[C@@H](CC[C@@]3(O)C#CC(C)(C)C)[C@@H]3CCC4=CC(=O)CC[C@@H]4[C@H]32)cc1F` [Compound 14, (8R,9S,10R,11S,13S,14S,17S)-17-(3,3-dimethylbut-1-yn-1-yl)-11-(3-fluoro-4-(isopropylamino)phenyl)-17-hydroxy-13-methyl-1,2,6,7,8,9,10,11,12,13,14,15,16,17-tetradecahydro-3H-cyclopenta[a]phenanthren-3-one] showed a pIC50 against GR below 7.00. Also, the “Relative Maximum Response” value in the experiment with AR is “A (A: ≤ 0.4)”.

Consider `CC(C)Nc1ccc([C@H]2C[C@@]3(C)[C@@H](CC[C@@]3(O)C#CC3CC3)[C@@H]3CCC4=CC(=O)CC[C@]4(C)[C@H]32)cc1` [Compound 18], for which the negative-log IC50 (pIC50) against GR was at least 7.00. Moreover, the “Relative Maximum Response” value in the experiment with AR was “A (A: ≤ 0.4)”.

Molecule `CCC(C)(C)C#C[C@]1(O)CC[C@H]2[C@@H]3CCC4=CC(=O)CC[C@@H]4[C@H]3[C@@H](c3ccc(N(C)C)cc3)C[C@@]21C` [Compound 6, (8R,9S,10R,11S,13S,14S,17S)-11-(4-(Dimethylamino)phenyl)-17-(3,3-dimethylpent-1-yn-1-yl)-17-hydroxy-13-methyl-1,2,6,7,8,9,10,11,12,13,14,15,16,17-tetradecahydro-3H-cyclopenta[a]phenanthren-3-one] showed a pIC50 on GR of at least 7.00. Also, in the experiment with AR, the “Relative Maximum Response” value is “A (A: ≤ 0.4)”.

Regarding `CC(C)N(C)c1ccc([C@H]2C[C@@]3(C)[C@@H](CC[C@@]3(O)C#CC(C)(C)C)[C@@H]3CCC4=CC(=O)CC[C@@H]4[C@H]32)cc1` [Compound 2, (8R,9S,10R,11S,13S,14S,17S)-17-(3,3-Dimethylbut-1-yn-1-yl)-17-hydroxy-11-(4-(isopropyl(methyl)amino)phenyl)-13-methyl-1,2,6,7,8,9,10,11,12,13,14,15,16,17-tetradecahydro-3H-cyclopenta[a]phenanthren-3-one], the pIC50 at GR was at least 7.00. The “Relative Maximum Response” value in the experiment with AR is given as “A (A: ≤ 0.4)”.

At GR, `CN(c1ccc([C@H]2C[C@@]3(C)[C@@H](CC[C@@]3(O)C#CC(C)(C)C)[C@@H]3CCC4=CC(=O)CC[C@@H]4[C@H]32)cc1)C(C)(C)C` [Compound 11, (8R,9S,10R,11S,13S,14S,17S)-11-(4-(tert-Butyl(methyl)amino)phenyl)-17-(3,3-dimethylbut-1-yn-1-yl)-17-hydroxy-13-methyl-1,2,6,7,8,9,10,11,12,13,14,15,16,17-tetradecahydro-3H-cyclopenta[a]phenanthren-3-one] had a pIC50 of at least 7.00. Besides, the “Relative Maximum Response” value with AR was “A (A: ≤ 0.4)”.
